Measurements as given in patent publication US6355658B1, “Coumarin derivatives, methods of preparation and application as medicines” (Centre National de la Recherche Scientifique, priority 1997, dated 2002).
Like-named read-outs stand apart in the source and are kept apart here.

Legend:
human thrombin = biological target: T1, human thrombin (Homo sapiens, UniProt P00734); experiment: Inactivation kinetics of human thrombin (chromogenic substrate H-D-Phe-Pip-Arg-pNA); format: biochemical; details: 25° C., pH 7.5, N.I. = non-inactivator; for kinact/KI: read-out: Ki/KI or kobs/[I], Thrombin
T1 construct: human thrombin
Method: (§1) The inactivating or inhibitory properties of the coumarin derivatives were tested with respect to a certain number of enzymes: human leukocyte elastase, bovine α-chymotrypsin, human thrombin and bovine trypsin. The kinetic measurements were taken at 25° C. in the following buffers: 0.1 M Hepes, 0.5 M NaCl, 0.01% Tween 80, pH 8.0 (human leukocyte elastase); 0.025 M NaH2PO4, 0.05 M KCl, pH 7.5 (α-chymotrypsin); 0.01 M Tris, 0.01 M Hepes, 0.1 M NaCl, 0.1% PEG-6000, pH 7.5 (human thrombin); 0.1 M Tris, 0.01 M CaCl2, pH 7.5 (bovine trypsin). The chromogenic substrates used to determine the activity of the enzymes are: MeOSuc-Ala2-Pro-Val-pNA (human leukocyte elastase); Suc-Ala2-Pro-Phe-pNA (α-chymotrypsin); H-D-Phe-Pip-Arg-pNA (human thrombin); N-benzoyl-Arg-pNA (bovine trypsin) (pNA: para-nitroaniline).
(§2) The interaction of a suicide substrate with a serine protease corresponds to the minimum reaction scheme described in equation 1 in which E represents the enzyme, I represents the inhibitor, E-I represents the acyl-enzyme and E-I′ represents the inactivated enzyme [Silverman R. B., 1988, “Mechanism-based enzyme inactivation: chemistry and enzymology”, volume 1 CRC Press, Boca Raton, Fla.]: [drawing 76]
(§3) When k4 is small compared to k3, equation 1 can be simplified (equation 2, [Daniels et al., 1983, J. Biol. Chem., 258: 15046-15053]): [drawing 77]
(§4) Considering the first instants of the reaction, the system reduces to a simplified equation of the form of equation 2.
(§5) The kinetic constants characterizing the inactivation of the enzymes with the coumarin derivatives were determined using either the conventional sampling method (or batchwise method) or a method placing the inhibitor and the substrate in competition (or continuous method); these methods are described by Pochet et al. [Pochet et al., 1996, J. Med. Chem., 39: 2579-2585].
(§6) The inactivation of serine proteaaes with the coumarin derivatives is thus characterized by the following constants (see Eq. 2):
(§7) KI: apparent dissociation constant of an enzyme-inhibitor complex located upstream of ki
(§8) ki: first-order rate constant for inactivation at infinite inhibitor concentration
(§9) ki/KI: index of the overall inactivating efficacy of the inhibitor.

human leukocyte elastase = biological target: T2, human leukocyte elastase (Homo sapiens, UniProt P08246); experiment: Inactivation kinetics of human leukocyte elastase (chromogenic substrate MeOSuc-Ala2-Pro-Val-pNA); format: biochemical; details: for kinact/KI / Ki/KI or kobs/[I], LHE: 25° C., pH 8.0; for kinact/KI: inactivation phase of transient inactivation, read-out: Ki/KI or kobs/[I], LHE; for Ki/KI or kobs/[I], LHE: inactivation phase
T2 sequence (P08246 30-247 limits assumed): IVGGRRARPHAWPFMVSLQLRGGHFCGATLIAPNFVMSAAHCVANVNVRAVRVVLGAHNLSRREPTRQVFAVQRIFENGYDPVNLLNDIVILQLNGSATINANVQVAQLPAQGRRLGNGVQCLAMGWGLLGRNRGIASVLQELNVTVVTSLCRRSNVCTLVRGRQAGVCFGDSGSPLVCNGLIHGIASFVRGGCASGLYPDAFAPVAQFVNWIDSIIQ
Method: as §1, §2, §3, §4, §5, §6, §7, §8, §9

bovine α-chymotrypsin = biological target: T3, bovine α-chymotrypsin (Bos taurus, UniProt P00766); experiment: Inactivation kinetics of bovine α-chymotrypsin (chromogenic substrate Suc-Ala2-Pro-Phe-pNA); format: biochemical; details: 25° C., pH 7.5, N.I. = non-inactivator; for kinact/KI: TABLE 1, 2-pyridyl esters, read-out: Ki/KI or kobs/[I], α-CT
T3 construct: bovine α-chymotrypsin
Method: as §1, §2, §3, §4, §5, §6, §7, §8, §9

bovine trypsin = biological target: T4, bovine trypsin (Bos taurus, UniProt P00760); experiment: Inactivation kinetics of bovine trypsin (chromogenic substrate N-benzoyl-Arg-pNA); format: biochemical; details: 25° C., pH 7.5, N.I. = non-inactivator
T4 sequence (P00760 24-246): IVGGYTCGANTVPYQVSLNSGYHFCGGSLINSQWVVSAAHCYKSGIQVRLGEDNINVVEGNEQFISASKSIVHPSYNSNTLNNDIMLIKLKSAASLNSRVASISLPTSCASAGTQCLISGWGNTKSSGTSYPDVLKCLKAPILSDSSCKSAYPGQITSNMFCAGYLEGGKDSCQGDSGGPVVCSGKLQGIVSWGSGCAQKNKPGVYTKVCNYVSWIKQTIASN
Method: as §1, §2, §3, §4, §5, §6, §7, §8, §9

[1] = TABLE 3, no chloromethyl in position 6
[2] = TABLE 1, 2-pyridyl esters, inactivation phase

SMILES | Ki/KI or kobs/[I], Thrombin (human thrombin; TABLE 3) | Ki/KI or kobs/[I], Thrombin (human thrombin; second table headed TABLE 3) | melting point | kinact/KI (human leukocyte elastase; [1]) | Ki/KI or kobs/[I], LHE (human leukocyte elastase; TABLE 3) | half-reactivation time for the enzyme (human leukocyte elastase; compound 750 nM, HLE 100 nM) | time during which the inhibition remains at 90% (human leukocyte elastase; compound 750 nM, HLE 100 nM) | inhibition at 0.75 µM (human leukocyte elastase; compound 750 nM, HLE 100 nM, reached in less than one minute) | Ki/KI or kobs/[I], α-CT (bovine α-chymotrypsin; [1]) | Ki/KI or kobs/[I], α-CT (bovine α-chymotrypsin; second table headed TABLE 3) | Ki/KI or kobs/[I], Trypsin (bovine trypsin; TABLE 3) | Ki/KI or kobs/[I], Trypsin (bovine trypsin; second table headed TABLE 3) | kinact/KI (human thrombin; [2]) | Ki/KI or kobs/[I], Thrombin (human thrombin; TABLE 1, inactivation phase) | kinact/KI (human leukocyte elastase; TABLE 1, 2-pyridyl esters) | Ki/KI or kobs/[I], LHE (human leukocyte elastase; TABLE 1) | kinact/KI (bovine α-chymotrypsin) | Ki/KI or kobs/[I], Trypsin (bovine trypsin; TABLE 1, 2-pyridyl esters) | Ki/KI or kobs/[I], Trypsin (bovine trypsin; TABLE 1) | Ki/KI or kobs/[I], Thrombin (human thrombin; [2])
Cc1ccc2oc(=O)c(C(=O)Oc3cncc(Cl)c3)cc2c1 [Ib2, 5-chloro-3-pyridyl 6-methyl-2-oxo-2H-1-benzopyran-3-carboxylate] | N.I. N.I. N.I. N.I. N.I. N.I. N.I. N.I. — | N.I. N.I. N.I. N.I. N.I. N.I. N.I. N.I. — | 215 to 217 °C | 32500 M⁻¹ s⁻¹ | 32500 M⁻¹ s⁻¹ | 35 min | 80 min | 90% | N.I.^a N.I. N.I. N.I. N.I. N.I. N.I. N.I. | N.I.^a N.I. N.I. N.I. N.I. N.I. N.I. N.I. | N.I. N.I. N.I. N.I. N.I. N.I. N.I. — — | N.I. N.I. N.I. N.I. N.I. N.I. N.I. — — | – | – | – | – | – | – | – | –
O=C(Oc1ccccn1)c1cc2cc(CCl)ccc2oc1=O [Ic′″9, 2-pyridyl 6-chloromethyl-2-oxo-2H-1-benzopyran-3-carboxylate] | – | – | 125 to 129 °C | – | – | – | – | – | – | – | – | – | ~240 M⁻¹ s⁻¹ | ~240 M⁻¹ s⁻¹ | 420 M⁻¹ s⁻¹ | 420 M⁻¹ s⁻¹ | 1670 M⁻¹ s⁻¹ | N.I.^a — — N.I. N.I. | N.I.^a — — N.I. N.I. | –
Cc1cccc(OC(=O)c2cc3cc(CCl)ccc3oc2=O)n1 [Ic′″10, 6-methyl-2-pyridyl 6-chloromethyl-2-oxo-2H-1-benzopyran-3-carboxylate] | – | – | 160 to 162 °C | – | – | – | – | – | – | – | – | – | – | N.I. | 200 M⁻¹ s⁻¹ | 200 M⁻¹ s⁻¹ | 3300 M⁻¹ s⁻¹ | N.I.^a — — N.I. N.I. | N.I.^a — — N.I. N.I. | N.I.
Cc1ccnc(OC(=O)c2cc3cc(CCl)ccc3oc2=O)c1 [Ic′″11, 4-methyl-2-pyridyl 6-chloromethyl-2-oxo-2H-1-benzopyran-3-carboxylate] | – | – | 152 to 154 °C | – | – | – | – | – | – | – | – | – | 3900 M⁻¹ s⁻¹ | 3900 M⁻¹ s⁻¹ | 300 M⁻¹ s⁻¹ | 300 M⁻¹ s⁻¹ | 5950 M⁻¹ s⁻¹ | N.I.^a — — N.I. N.I. | N.I.^a — — N.I. N.I. | –
CC(=O)OCc1ccc2oc(=O)c(C(=O)Oc3cncc(Cl)c3)cc2c1 [Id3, 5-chloro-3-pyridyl 6-acetoxymethyl-2-oxo-2H-1-benzopyran-3-carboxylate] | N.I. N.I. N.I. N.I. N.I. N.I. N.I. N.I. — | N.I. N.I. N.I. N.I. N.I. N.I. N.I. N.I. — | 153 to 155 °C | 107000 M⁻¹ s⁻¹ | 107000 M⁻¹ s⁻¹ | – | – | – | N.I.^a N.I. N.I. N.I. N.I. N.I. N.I. N.I. | N.I.^a N.I. N.I. N.I. N.I. N.I. N.I. N.I. | N.I. N.I. N.I. N.I. N.I. N.I. N.I. — — | N.I. N.I. N.I. N.I. N.I. N.I. N.I. — — | – | – | – | – | – | – | – | –
CCC(=O)OCc1ccc2oc(=O)c(C(=O)Oc3cncc(Cl)c3)cc2c1 [Id6, 5-chloro-3-pyridyl 6-propionyloxymethyl-2-oxo-2H-1-benzopyran-3-carboxylate] | N.I. N.I. N.I. N.I. N.I. N.I. N.I. N.I. — | N.I. N.I. N.I. N.I. N.I. N.I. N.I. N.I. — | 156 to 158 °C | 62000 M⁻¹ s⁻¹ | 62000 M⁻¹ s⁻¹ | – | – | – | N.I.^a N.I. N.I. N.I. N.I. N.I. N.I. N.I. | N.I.^a N.I. N.I. N.I. N.I. N.I. N.I. N.I. | N.I. N.I. N.I. N.I. N.I. N.I. N.I. — — | N.I. N.I. N.I. N.I. N.I. N.I. N.I. — — | – | – | – | – | – | – | – | –
CC(C)(C)C(=O)OCc1ccc2oc(=O)c(C(=O)Oc3cncc(Cl)c3)cc2c1 [Id8, 5-chloro-3-pyridyl 6-trimethylacetoxymethyl-2-oxo-2H-1-benzopyran-3-carboxylate] | N.I. N.I. N.I. N.I. N.I. N.I. N.I. N.I. — | – | – | 95500 M⁻¹ s⁻¹ | – | – | – | – | N.I.^a N.I. N.I. N.I. N.I. N.I. N.I. N.I. | – | N.I. N.I. N.I. N.I. N.I. N.I. N.I. — — | – | – | – | – | – | – | – | – | –
CC(C)C(=O)OCc1ccc2oc(=O)c(C(=O)Oc3cncc(Cl)c3)cc2c1 [Id9, 5-chloro-3-pyridyl 6-dimethylacetoxymethyl-2-oxo-2H-1-benzopyran-3-carboxylate] | N.I. N.I. N.I. N.I. N.I. N.I. N.I. N.I. — | N.I. N.I. N.I. N.I. N.I. N.I. N.I. N.I. — | 162 to 164 °C | 45000 M⁻¹ s⁻¹ | 45000 M⁻¹ s⁻¹ | – | – | – | N.I.^a N.I. N.I. N.I. N.I. N.I. N.I. N.I. | N.I.^a N.I. N.I. N.I. N.I. N.I. N.I. N.I. | N.I. N.I. N.I. N.I. N.I. N.I. N.I. — — | N.I. N.I. N.I. N.I. N.I. N.I. N.I. — — | – | – | – | – | – | – | – | –
CCCC(=O)OCc1ccc2oc(=O)c(C(=O)Oc3cncc(Cl)c3)cc2c1 [Id10, 5-chloro-3-pyridyl 6-butyryloxymethyl-2-oxo-2H-1-benzopyran-3-carboxylate] | N.I. N.I. N.I. N.I. N.I. N.I. N.I. N.I. — | N.I. N.I. N.I. N.I. N.I. N.I. N.I. N.I. — | 146 to 148 °C | 67600 M⁻¹ s⁻¹ | 67600 M⁻¹ s⁻¹ | – | – | – | N.I.^a N.I. N.I. N.I. N.I. N.I. N.I. N.I. | N.I.^a N.I. N.I. N.I. N.I. N.I. N.I. N.I. | N.I. N.I. N.I. N.I. N.I. N.I. N.I. — — | N.I. N.I. N.I. N.I. N.I. N.I. N.I. — — | – | – | – | – | – | – | – | –
